{"source": "patent US9072916B2", "about": "“Aqueous anti-perspiration formulation” (BEIERSDORF AG, priority 2004, dated 2015)", "origin": "cited, not measured here", "details": "in water, alcohol, ether and 2-propanol", "data": [{"smiles": "O=C(O)C(O)c1ccccc1", "note": "(stereo not shown) [Mandelic acid, mandelic acid]", "values": [{"measurement": "solubility", "result": "readily soluble"}]}]}
